From article doi:10.1101/2023.03.24.534094v2 (biorxiv, 2023) come the findings set out here.

Each structure is given as a SMILES string. Where two headings read alike, the source gives them in different places.

Among the targets are BIKE (Homo sapiens, UniProt Q9NSY1); MRCKa (Homo sapiens, UniProt Q5VT25); HIPK2 (Homo sapiens, UniProt Q9H2X6).
Common to all, as to assay: biochemical
The next assay addresses T1, GAK (Homo sapiens, UniProt O14976).
T1 sequence (O14976 1-1311): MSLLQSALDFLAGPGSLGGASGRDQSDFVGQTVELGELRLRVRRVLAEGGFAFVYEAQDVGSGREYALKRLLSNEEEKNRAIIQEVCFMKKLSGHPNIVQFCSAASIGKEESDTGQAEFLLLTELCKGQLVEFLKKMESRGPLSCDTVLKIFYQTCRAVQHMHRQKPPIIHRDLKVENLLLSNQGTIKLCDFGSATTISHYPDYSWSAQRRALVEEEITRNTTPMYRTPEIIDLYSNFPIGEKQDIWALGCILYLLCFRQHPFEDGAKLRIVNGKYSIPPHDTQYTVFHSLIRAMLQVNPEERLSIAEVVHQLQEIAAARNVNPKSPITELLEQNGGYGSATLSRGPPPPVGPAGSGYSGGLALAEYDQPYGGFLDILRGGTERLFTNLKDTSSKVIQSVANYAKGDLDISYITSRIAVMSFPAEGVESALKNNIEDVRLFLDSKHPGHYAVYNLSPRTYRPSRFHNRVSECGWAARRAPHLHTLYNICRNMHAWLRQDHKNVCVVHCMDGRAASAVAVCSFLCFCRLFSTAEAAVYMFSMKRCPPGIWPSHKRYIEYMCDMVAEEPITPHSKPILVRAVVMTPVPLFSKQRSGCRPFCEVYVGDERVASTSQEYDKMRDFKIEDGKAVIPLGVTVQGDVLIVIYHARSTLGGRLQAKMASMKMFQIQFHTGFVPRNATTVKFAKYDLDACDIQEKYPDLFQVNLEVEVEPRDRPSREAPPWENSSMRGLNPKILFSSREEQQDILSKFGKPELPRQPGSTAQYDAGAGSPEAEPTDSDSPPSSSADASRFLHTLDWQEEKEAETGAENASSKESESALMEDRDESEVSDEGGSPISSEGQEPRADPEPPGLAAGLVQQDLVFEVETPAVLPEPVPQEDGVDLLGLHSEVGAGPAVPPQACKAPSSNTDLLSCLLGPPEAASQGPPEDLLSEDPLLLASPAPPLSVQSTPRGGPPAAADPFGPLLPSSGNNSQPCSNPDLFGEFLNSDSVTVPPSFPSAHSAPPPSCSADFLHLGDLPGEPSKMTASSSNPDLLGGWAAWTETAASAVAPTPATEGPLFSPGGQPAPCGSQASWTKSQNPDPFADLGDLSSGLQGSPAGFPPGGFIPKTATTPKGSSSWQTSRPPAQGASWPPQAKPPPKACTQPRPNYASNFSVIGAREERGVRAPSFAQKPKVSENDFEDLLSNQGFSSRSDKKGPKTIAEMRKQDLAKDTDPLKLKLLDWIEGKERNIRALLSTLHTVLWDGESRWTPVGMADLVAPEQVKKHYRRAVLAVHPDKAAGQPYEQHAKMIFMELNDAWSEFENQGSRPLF

The next assay concerns the target T2, PLK4 (Homo sapiens, UniProt O00444).
T2 sequence (O00444 1-970): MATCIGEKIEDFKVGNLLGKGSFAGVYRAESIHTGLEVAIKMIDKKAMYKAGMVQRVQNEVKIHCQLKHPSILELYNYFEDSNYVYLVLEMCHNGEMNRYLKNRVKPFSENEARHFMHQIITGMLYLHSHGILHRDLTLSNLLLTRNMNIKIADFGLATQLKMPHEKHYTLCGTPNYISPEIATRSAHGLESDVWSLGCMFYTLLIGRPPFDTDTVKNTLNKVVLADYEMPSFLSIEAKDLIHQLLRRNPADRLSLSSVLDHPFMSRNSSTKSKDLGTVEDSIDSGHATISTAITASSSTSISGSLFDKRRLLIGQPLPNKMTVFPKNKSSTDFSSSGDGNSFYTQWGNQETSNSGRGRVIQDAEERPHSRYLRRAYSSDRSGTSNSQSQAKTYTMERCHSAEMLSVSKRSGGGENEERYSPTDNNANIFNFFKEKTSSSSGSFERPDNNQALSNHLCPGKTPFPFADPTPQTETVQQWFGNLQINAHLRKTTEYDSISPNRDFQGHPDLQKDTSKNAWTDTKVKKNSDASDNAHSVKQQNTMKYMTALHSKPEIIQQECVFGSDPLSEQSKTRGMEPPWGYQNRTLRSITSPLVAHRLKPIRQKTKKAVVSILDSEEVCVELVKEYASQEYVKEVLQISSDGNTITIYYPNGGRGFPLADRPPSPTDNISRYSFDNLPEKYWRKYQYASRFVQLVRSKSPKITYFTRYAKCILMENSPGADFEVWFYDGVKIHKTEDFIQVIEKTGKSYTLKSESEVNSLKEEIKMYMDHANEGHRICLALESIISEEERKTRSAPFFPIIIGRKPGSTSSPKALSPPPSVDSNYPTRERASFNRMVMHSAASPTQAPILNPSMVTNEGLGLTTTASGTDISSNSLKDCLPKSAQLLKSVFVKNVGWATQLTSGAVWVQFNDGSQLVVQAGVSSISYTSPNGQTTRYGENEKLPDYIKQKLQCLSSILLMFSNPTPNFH

Another assay has as its target T3, VRK1 (Homo sapiens, UniProt Q99986).
T3 sequence (Q99986 1-396): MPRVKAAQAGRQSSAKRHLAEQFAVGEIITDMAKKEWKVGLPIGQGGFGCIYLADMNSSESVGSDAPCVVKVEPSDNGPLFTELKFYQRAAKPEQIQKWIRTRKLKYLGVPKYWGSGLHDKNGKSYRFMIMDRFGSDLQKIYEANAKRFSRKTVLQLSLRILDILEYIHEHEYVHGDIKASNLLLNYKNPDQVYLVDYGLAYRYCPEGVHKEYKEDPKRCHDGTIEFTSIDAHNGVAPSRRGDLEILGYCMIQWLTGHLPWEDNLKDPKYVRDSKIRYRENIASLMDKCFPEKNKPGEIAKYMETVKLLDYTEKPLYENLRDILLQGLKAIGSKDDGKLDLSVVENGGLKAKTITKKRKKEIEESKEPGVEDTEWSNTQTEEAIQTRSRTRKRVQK

Chain of MRCKa (Q5VT25 whole entry): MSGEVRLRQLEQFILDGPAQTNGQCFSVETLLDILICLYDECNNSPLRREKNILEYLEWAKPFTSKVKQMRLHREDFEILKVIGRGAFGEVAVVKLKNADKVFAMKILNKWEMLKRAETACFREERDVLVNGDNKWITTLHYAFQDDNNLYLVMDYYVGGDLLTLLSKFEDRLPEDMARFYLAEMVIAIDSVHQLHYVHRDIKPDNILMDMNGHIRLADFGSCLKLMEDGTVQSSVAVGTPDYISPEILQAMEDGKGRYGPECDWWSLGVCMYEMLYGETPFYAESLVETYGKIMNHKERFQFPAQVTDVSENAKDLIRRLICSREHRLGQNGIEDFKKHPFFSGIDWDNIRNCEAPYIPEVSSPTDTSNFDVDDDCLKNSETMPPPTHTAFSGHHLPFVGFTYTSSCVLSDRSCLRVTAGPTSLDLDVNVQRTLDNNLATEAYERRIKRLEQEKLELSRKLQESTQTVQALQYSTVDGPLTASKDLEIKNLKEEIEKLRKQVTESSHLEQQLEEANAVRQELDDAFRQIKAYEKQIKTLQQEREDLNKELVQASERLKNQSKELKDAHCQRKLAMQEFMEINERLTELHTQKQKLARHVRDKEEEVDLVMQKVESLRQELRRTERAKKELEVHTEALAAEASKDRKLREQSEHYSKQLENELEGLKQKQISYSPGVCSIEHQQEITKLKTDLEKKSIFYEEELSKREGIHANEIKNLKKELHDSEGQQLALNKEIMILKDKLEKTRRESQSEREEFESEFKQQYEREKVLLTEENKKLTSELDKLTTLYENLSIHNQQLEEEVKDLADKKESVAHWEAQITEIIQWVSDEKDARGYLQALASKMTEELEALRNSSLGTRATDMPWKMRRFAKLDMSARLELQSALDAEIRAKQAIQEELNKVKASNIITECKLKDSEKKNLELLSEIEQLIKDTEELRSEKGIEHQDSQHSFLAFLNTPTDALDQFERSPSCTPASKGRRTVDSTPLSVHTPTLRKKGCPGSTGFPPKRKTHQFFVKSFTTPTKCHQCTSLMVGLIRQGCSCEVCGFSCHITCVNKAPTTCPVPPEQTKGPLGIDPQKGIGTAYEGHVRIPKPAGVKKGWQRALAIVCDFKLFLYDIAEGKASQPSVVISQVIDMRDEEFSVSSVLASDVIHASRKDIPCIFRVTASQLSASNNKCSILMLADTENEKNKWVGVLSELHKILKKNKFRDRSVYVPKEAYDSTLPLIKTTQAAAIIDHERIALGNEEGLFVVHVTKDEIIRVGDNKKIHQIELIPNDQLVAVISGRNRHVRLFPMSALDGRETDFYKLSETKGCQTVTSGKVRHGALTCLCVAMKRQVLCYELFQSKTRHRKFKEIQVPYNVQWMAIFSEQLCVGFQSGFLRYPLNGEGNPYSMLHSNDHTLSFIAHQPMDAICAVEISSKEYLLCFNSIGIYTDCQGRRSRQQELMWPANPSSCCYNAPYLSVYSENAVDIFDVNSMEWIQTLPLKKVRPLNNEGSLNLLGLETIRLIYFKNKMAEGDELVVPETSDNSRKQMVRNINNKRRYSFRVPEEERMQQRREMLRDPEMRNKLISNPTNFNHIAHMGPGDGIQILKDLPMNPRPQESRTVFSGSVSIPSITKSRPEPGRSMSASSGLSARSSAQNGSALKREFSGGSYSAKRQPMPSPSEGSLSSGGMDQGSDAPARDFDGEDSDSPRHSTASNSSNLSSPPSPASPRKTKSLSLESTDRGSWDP
Chain of BIKE (Q9NSY1 whole entry): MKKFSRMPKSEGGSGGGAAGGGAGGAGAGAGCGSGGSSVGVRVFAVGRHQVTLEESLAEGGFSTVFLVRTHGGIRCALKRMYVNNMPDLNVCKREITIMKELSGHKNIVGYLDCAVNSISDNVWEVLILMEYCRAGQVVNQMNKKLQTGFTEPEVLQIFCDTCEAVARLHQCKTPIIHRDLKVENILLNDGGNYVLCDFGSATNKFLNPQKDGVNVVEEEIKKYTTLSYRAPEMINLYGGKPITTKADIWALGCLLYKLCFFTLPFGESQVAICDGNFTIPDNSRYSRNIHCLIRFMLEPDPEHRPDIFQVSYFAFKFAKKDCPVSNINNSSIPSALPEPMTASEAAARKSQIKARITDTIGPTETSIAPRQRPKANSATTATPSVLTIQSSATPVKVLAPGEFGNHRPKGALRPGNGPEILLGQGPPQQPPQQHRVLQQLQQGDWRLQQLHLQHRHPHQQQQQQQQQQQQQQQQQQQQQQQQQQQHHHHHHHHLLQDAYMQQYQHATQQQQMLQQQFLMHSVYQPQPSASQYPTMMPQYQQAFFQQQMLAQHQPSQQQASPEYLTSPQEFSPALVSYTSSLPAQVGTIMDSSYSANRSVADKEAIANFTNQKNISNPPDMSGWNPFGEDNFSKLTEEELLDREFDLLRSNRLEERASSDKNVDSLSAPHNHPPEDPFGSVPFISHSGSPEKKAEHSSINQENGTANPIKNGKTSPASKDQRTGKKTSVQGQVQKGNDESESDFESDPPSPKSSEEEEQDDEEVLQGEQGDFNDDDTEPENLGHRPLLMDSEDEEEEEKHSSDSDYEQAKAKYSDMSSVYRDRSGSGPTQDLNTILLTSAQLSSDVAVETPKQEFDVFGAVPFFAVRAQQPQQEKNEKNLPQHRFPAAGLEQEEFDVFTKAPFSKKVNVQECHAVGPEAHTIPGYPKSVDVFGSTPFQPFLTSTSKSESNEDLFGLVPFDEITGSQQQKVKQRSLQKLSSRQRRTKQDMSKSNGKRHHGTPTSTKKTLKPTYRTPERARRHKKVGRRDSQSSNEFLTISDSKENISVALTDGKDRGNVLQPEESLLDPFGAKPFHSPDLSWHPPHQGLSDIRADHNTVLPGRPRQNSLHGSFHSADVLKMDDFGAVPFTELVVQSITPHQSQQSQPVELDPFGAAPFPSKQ
Chain of HIPK2 (Q9H2X6 whole entry): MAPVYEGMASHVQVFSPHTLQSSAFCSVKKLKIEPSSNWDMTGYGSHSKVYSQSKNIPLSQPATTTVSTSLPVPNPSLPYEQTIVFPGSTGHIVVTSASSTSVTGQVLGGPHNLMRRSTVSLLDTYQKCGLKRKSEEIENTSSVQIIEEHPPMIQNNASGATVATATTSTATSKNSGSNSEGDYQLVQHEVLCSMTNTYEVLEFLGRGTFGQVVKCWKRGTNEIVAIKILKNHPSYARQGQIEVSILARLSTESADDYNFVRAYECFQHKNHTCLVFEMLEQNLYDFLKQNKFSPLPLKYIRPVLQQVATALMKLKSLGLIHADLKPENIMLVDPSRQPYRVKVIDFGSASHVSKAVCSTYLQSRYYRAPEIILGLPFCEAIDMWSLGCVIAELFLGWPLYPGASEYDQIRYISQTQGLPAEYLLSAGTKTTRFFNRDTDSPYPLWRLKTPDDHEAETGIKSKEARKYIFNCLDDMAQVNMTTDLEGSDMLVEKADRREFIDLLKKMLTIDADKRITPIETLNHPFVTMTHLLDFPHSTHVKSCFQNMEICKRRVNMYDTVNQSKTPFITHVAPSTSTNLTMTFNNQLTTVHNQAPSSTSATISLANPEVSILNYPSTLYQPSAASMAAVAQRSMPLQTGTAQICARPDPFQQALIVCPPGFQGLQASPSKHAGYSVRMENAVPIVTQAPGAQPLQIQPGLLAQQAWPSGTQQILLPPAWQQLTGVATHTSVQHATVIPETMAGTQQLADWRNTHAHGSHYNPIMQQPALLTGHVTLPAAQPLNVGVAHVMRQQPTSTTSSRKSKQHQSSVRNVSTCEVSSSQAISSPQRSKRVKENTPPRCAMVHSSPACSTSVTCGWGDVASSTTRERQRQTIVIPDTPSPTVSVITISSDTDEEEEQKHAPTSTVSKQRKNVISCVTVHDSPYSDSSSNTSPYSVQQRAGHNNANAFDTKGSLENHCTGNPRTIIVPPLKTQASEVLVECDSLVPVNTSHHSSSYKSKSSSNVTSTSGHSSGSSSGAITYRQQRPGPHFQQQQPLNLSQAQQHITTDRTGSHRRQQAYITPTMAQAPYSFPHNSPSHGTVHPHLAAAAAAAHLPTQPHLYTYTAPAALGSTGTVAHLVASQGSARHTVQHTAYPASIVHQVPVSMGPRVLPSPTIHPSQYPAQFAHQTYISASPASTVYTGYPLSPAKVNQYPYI

As for `CNc1ncc2cc(-c3ccc(-c4cccc(C)n4)cc3Cl)c(=O)n(CC3OCC(N)CO3)c2n1` (centres unmarked) [compound 2, G-5555], the “dTm G-5555 (2)” value is 2.5 °C at BIKE (10 µM, binder); 6.1 °C on GAK (10 µM, binder); 0.9 °C on MRCKa (10 µM, binder); 3.4 °C at PLK4 (10 µM, binder); -0.1 °C at VRK1 (10 µM, binder).

As to `CNc1ncc2cc(-c3cc(Br)ccc3Cl)c(=O)n(C[C@H]3OC[C@H](N)CO3)c2n1` [compound 7, 8-(((2r,5r)-5-Amino-1,3-dioxan-2-yl)methyl)-6-(5-bromo-2-chlorophenyl)-2-(methylamino)pyrido[2,3-d]pyrimidin-7(8H)-one], the ΔTm at 10 µM amounted to 0.7 °C at BIKE (read-out: dTm 7); 2.6 °C at GAK (read-out: dTm 7); 0.5 °C at HIPK2 (read-out: dTm 7); 0.1 °C on MRCKa (read-out: dTm 7); 0.4 °C at PLK4 (read-out: dTm 7); 0.5 °C at VRK1 (read-out: dTm 7).

`CNc1ncc2cc(-c3cc(Br)ccc3Cl)c(=O)n(CCCCN)c2n1` [compound 6, 8-(4-Aminobutyl)-6-(5-bromo-2-chlorophenyl)-2-(methylamino)pyrido[2,3-d]pyrimidin-7(8H)-one]: the ΔTm at 10 µM at BIKE (read-out: dTm 6) is 0.6 °C; at GAK (read-out: dTm 6), 4.1 °C; at HIPK2 (read-out: dTm 6), 0.2 °C; on MRCKa (read-out: dTm 6), 0.5 °C; at PLK4 (read-out: dTm 6) it was 0.4 °C; on VRK1 (read-out: dTm 6) it was 0.3 °C.

For `CNc1ncc2cc(-c3ccccc3Cl)c(=O)n(CCCCN)c2n1` [compound 4, 8-(4-Aminobutyl)-6-(2-chlorophenyl)-2-(methylamino)pyrido[2,3-d]pyrimidin-7(8H)-one], the ΔTm at 10 µM is 3.1 °C at BIKE (read-out: dTm MR21 (4)); 6.6 °C at GAK (read-out: dTm MR21 (4)); 0.1 °C at HIPK2 (read-out: dTm MR21 (4)); 0.2 °C at MRCKa (read-out: dTm MR21 (4)); 0 °C at PLK4 (read-out: dTm MR21 (4)); -0.4 °C at VRK1 (read-out: dTm MR21 (4)).

Consider `CNc1ncc2cc(-c3cc(F)ccc3F)c(=O)n(CCCCN)c2n1` [compound 5, 8-(4-Aminobutyl)-6-(2,5-difluorophenyl)-2-(methylamino)pyrido[2,3-d]pyrimidin-7(8H)-one], for which the ΔTm at 10 µM was 2.1 °C on BIKE (read-out: dTm MR22 (5)); 5.4 °C at GAK (read-out: dTm MR22 (5)); 0.1 °C on HIPK2 (read-out: dTm MR22 (5)); -0.5 °C on MRCKa (read-out: dTm MR22 (5)); 0.3 °C at PLK4 (read-out: dTm MR22 (5)); 0.4 °C on VRK1 (read-out: dTm MR22 (5)).
